We go through ten compounds from PubChem BioAssay (NCI).

Molecules are shown by their SMILES.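 Compound exposure: 48 hours, 5 concentrations, 96-well plates. GI50 = concentration required for 50% inhibition of growth. Definition used: TGI = concentration required for complete inhibition of growth.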

Holding throughout (assay): NCI anticancer screen, dose series, 48 h
Assay [1] concerns SN12C renal.
Assay [2] has as its system HL-60(TB) leukemia.
For assay [3], the system named is CAKI-1 renal.
Assay [4] has as its system HCT-15 colon.
The test system of assay [5] is HOP-62 NSCLC.
For assay [6], the system named is SW-620 colon.
The test system of assay [7] is SR leukemia.
The test system of assay [8] is TK-10 renal.
In assay [9] the test system is NCI-H226 lung.
Assay [10] concerns ACHN renal.

On to `COc1cccc2c1C(=O)c1c(O)c3c(c(O)c1C2=O)C[C@@](O)(C(=O)CO)C[C@@H]3O[C@H]1C[C@H](N)[C@@H](O)[C@H](C)O1`, for which the GI50 was 0.126 µM in assay [1]; 0.145 µM in [2]; 1.32 µM in assay [3]; 2.99 µM in assay [4]; 0.16 µM in assay [5]; 0.0137 µM in assay [7]. Moreover, the GI50 in assay [9] was 0.068 µM. The TGI amounted to 11.9 µM in assay [1]; 1.01 µM in assay [2]; 30.7 µM in assay [3]; 50 µM in [4]; 2.37 µM in assay [5]; 7.61 µM in [6]. Besides, the TGI worked out at 1.07 µM in assay [7], 10.5 µM in assay [8] and 0.222 µM in assay [9].
As for `COc1cc(/C=N/NC(=O)c2cnn3c2NC(c2ccccc2)C3)ccc1Oc1ccccc1` (stereo not drawn), the GI50 in assay [1] was 1.78 µM; in [3] it was 0.996 µM; in [4], 0.559 µM; in assay [5], 1.18 µM; in assay [6], 0.868 µM; in assay [7] it was 0.488 µM. Also, the GI50 was 2.62 µM in assay [8], 1.33 µM in assay [10] and 2.17 µM in assay [9]. In addition, the TGI in assay [1] turned out to be 4.22 µM; in assay [3], 10.2 µM; in assay [4] it was 3.15 µM; in [5] it was 4.34 µM; in [6] it was 10.1 µM; in assay [7], 10 µM. Besides, the TGI came to 11.5 µM in assay [8], 7.31 µM in assay [10] and 7.95 µM in assay [9].
`C/C=C1/CCC2c3[nH]c4ccccc4c3CCN2C1` (stereo not drawn): the TGI in assay [1], in assay [2], in assay [3], in [5], in assay [6] and in assay [7] was greater than 100 µM throughout. Further, the TGI in [8], in assay [10] and in assay [9] was greater than 100 µM throughout.
As for `Cc1cc2[nH]c(=O)c3c4ccccc4cn3c2cc1C`, the GI50 in assay [1] is 6.02 µM; in assay [3], 5.33 µM; in assay [4], 6.18 µM; in [5], 2.71 µM; in [6], 3.83 µM; in assay [7] it was 2.6 µM. Also, the GI50 in [8] is 19.7 µM; in assay [10], 10.2 µM; in assay [9], 15.1 µM. The TGI came out at 20.3 µM in assay [1]; 17.8 µM in assay [3]; 22 µM in [4]; 8.18 µM in assay [5]; 33.2 µM in assay [6]; 5.75 µM in assay [7]. Besides, the TGI in assay [8] is 34.2 µM; in assay [10], 23.5 µM; in [9] it was 36.7 µM.
With `O=C1CCCC(=O)N1CCc1c[nH]c2ccccc12`, the TGI in [1], in [2], in assay [3], in assay [5], in [6] and in assay [7] was greater than 100 µM throughout. Also, the TGI in assay [8], in assay [10] and in assay [9] was greater than 100 µM throughout.
With `O=C(Nc1ccc2[nH]c(=S)sc2c1)Nc1ccccc1F`, the GI50 in assay [1] was 41.9 µM; in [2] it was 23.9 µM; in assay [3], 2.71 µM; in [4], 20.4 µM; in assay [5], 37.2 µM; in assay [6], 43.1 µM. Also, the results for the GI50 in assay [7], in assay [8] and in assay [10] were 17.5 µM, 51.5 µM and 37.4 µM, respectively. Moreover, the TGI is greater than 100 µM in assay [1]; 93.5 µM in assay [2]; 14.6 µM in [3]; greater than 100 µM in assay [4]; greater than 100 µM in assay [5]; greater than 100 µM in assay [6]. Further, the TGI in assay [7], in assay [8] and in [10] was greater than 100 µM each time.
As to `Fc1ccccc1C1SCc2nc3ccccc3n21` (stereo not drawn), the TGI was greater than 100 µM in assay [1]; 44.6 µM in assay [2]; greater than 100 µM in assay [3]; greater than 100 µM in [6]; greater than 100 µM in [7]; greater than 100 µM in assay [8]. For the same compound, the TGI in assay [10] and in assay [9] was greater than 100 µM in each case.
With `CC(C)c1c(O)ccc2c1CCC1C(C)(C)CCCC21C` (stereo not drawn), the TGI was found to be 27.8 µM in assay [1]; 52.3 µM in assay [2]; 31.7 µM in assay [3]; 34.3 µM in [4]; 40.1 µM in assay [6]; 40.5 µM in [7]. Besides, the TGI came out at 35.8 µM in assay [8], 30.8 µM in [10] and 33.6 µM in assay [9].
As to `COC(=O)C1CCCN1C(=O)[C@@H]1CCCN1C(=O)[C@H](Cc1c[nH]c2ccccc12)NC(=S)Nc1cc(C(F)(F)F)cc(C(F)(F)F)c1` (stereo partly drawn), the GI50 in assay [1] is 2.82 µM; in [2], 2.35 µM; in assay [3] it was 2.73 µM; in assay [4] it was 3.41 µM; in assay [5] it was 2.17 µM; in assay [6] it was 3.68 µM. Besides, the GI50 is 1.92 µM in assay [7], 2.11 µM in assay [8] and 2.26 µM in assay [9]. Further, the TGI in assay [1] amounted to 10.5 µM; in assay [2], 5.95 µM; in assay [3] it was 11.1 µM; in assay [4], 12.8 µM; in [5] it was 6.5 µM; in assay [6], 12.6 µM. In addition, the results for the TGI in [7], in assay [8] and in assay [9] were 5.03 µM, 5 µM and 8.01 µM, respectively.
For the compound `CNC(=O)CC1NC(=O)c2csc(n2)-c2ccc(-c3nc(C4=NC(C(=O)N5CCCC5C(N)=O)CO4)cs3)nc2-c2csc(n2)-c2csc(n2)C(C(C)C)NC(=O)CNC(=O)c2csc(n2)C(C(C)C)NC(=O)c2nc1sc2C` (stereo not drawn), the GI50 in [1] is greater than 25 µM; in assay [2], less than 0.001 µM; in assay [3], greater than 25 µM; in [4] it was greater than 25 µM; in assay [6], greater than 25 µM; in [7] it was less than 0.001 µM. Moreover, the GI50 in assay [8], in assay [10] and in assay [9] was greater than 25 µM throughout. The TGI in assay [1], in assay [3], in assay [4], in assay [6], in assay [10] and in assay [9] was greater than 25 µM in each case.
